Results on 13 molecules are retold here after patent publication USRE49850E1, “N-(pyridin-2-yl)-4-(thiazol-5-yl)pyrimidin-2-amine derivatives as therapeutic compounds” (AUCENTRA THERAPEUTICS PTY LTD, priority 2015, dated 2024).

For one experiment, the target named is CDK1B (Homo sapiens, UniProt P06493). Description: Kinase assay CDK1B (radiometric profiling service). It counts as biochemical. Particulars: apparent Ki calculated from Km (ATP) and IC50; read-out: CDK inhibition Ki CDK1B. The gist of the method: (§1)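 Radiometric inhibition data for CDKs came from Eurofins or Reaction Biology profiling services; CDK4/D1 was also run in-house by ADP-Glo in […] pH 7.5, 20 mM MgCl2, 0.4 mM DTT, 0.1 mg/ml BSA with RB-CTF substrate, 40 min at 37 °C after ATP start. Ten-point 1:3 dilutions (10 μM–0.5 nM); four-parameter IC50, Ki from IC50 and ATP Km.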
Sequence of CDK1B (P06493 whole entry): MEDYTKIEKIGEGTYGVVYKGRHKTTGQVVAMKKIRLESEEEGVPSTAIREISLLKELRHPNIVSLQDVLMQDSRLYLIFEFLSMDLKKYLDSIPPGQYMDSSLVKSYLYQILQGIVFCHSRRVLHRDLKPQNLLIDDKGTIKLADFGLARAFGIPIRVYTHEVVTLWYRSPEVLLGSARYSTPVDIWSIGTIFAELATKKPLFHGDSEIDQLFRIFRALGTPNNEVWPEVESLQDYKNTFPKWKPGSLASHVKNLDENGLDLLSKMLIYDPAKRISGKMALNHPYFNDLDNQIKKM
Sequence of CDK1B (P14635 whole entry partner): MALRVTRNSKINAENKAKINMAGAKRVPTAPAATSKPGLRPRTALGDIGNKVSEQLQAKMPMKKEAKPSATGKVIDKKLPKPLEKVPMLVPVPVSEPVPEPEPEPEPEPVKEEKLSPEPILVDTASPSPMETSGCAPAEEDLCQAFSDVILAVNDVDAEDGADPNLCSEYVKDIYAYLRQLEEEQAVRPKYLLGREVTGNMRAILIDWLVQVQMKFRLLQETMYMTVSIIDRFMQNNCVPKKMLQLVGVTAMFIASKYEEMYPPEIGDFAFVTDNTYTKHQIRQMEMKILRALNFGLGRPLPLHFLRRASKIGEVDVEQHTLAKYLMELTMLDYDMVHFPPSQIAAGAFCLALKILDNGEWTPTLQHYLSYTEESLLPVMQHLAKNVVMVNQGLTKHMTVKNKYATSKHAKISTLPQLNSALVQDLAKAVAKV

The target in the next experiment is CDK 2A (Homo sapiens, UniProt P24941). As to the kind of experiment: Kinase assay CDK2A (radiometric profiling service). Format: biochemical. As to conditions: apparent Ki calculated from Km (ATP) and IC50; read-out: CDK inhibition Ki CDK 2A. In a few lines: as §1
Another experiment has as its target T1, CDK4D1 (Homo sapiens, UniProt P11802).
T1 construct: purchased Eurofins Pharma Discovery or Reaction Biology Corporation (service)
As to the kind of experiment: Kinase assay CDK4/D1 (radiometric or ADP Glo). Format: biochemical. Particulars: apparent Ki calculated from Km (ATP) and IC50; read-out: CDK inhibition Ki CDK4D1. In a few lines:
as §1

The target in another experiment is T2, CDK6D3 (Homo sapiens, UniProt Q00534).
T2 construct: purchased Eurofins Pharma Discovery or Reaction Biology Corporation (service)
T2 sequence (Q00534 whole entry): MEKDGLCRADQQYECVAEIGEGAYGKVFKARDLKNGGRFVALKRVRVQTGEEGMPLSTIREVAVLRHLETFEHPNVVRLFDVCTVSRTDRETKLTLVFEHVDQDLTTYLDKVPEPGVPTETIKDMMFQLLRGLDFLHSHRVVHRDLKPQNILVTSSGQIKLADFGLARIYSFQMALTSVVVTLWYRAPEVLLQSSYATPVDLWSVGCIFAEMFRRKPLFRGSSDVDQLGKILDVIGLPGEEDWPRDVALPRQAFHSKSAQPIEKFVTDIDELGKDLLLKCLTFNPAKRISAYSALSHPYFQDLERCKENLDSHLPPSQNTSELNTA
T2 sequence (P30281 whole entry partner): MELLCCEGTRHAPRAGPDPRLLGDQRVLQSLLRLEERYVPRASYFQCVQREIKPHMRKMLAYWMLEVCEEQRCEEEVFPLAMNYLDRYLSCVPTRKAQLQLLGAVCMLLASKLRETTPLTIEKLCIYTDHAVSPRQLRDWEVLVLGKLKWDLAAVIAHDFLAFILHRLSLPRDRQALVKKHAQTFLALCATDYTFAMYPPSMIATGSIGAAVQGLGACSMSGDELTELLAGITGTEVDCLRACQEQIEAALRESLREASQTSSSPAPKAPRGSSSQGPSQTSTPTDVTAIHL
As to the kind of experiment: Kinase assay CDK6/D3 (radiometric or ADP Glo). Format: biochemical. As to conditions: apparent Ki calculated from Km (ATP) and IC50; read-out: CDK inhibition Ki CDK6D3. The gist of the method:
as §1

For another experiment, the target named is CDK7H (Homo sapiens, UniProt P50613). Description: Kinase assay CDK7H (radiometric profiling service). Format: biochemical. Particulars: apparent Ki calculated from Km (ATP) and IC50; read-out: CDK inhibition Ki CDK7H. The gist of the method: as §1
Sequence of CDK7H (P50613 whole entry): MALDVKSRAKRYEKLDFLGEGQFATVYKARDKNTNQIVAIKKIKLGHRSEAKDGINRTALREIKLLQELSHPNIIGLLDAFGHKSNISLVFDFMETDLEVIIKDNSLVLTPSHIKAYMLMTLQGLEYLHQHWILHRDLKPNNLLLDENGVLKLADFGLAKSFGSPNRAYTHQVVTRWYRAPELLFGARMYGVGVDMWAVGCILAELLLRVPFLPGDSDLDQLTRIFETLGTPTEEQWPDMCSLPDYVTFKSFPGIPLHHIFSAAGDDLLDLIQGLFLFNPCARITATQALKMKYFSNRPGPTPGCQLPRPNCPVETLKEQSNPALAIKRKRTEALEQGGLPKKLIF
Sequence of CDK7H (P51946 whole entry partner): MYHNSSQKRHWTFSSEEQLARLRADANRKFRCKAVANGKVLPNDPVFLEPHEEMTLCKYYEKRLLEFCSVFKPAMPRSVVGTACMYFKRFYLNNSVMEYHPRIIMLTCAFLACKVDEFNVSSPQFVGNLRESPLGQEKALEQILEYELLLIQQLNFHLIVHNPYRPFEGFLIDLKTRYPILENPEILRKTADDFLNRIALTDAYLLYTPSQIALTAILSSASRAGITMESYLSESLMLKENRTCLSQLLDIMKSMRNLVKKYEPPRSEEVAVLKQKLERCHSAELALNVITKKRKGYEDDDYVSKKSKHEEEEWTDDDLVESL
Sequence of CDK7H (P51948 whole entry partner): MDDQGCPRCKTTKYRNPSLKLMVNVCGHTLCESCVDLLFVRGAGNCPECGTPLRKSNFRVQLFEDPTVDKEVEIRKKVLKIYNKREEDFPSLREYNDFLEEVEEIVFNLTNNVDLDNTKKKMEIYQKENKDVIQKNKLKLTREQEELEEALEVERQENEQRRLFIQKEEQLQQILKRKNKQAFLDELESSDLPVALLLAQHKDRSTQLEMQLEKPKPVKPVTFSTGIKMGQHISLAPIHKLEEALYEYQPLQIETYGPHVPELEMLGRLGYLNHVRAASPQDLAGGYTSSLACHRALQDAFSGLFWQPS
The next experiment addresses T3, CDK9T1 (Homo sapiens, UniProt P50750).
T3 construct: purchased Eurofins Pharma Discovery or Reaction Biology Corporation (service)
Description: Kinase assay CDK9/T1 (radiometric or ADP Glo). It counts as biochemical. Particulars: apparent Ki calculated from Km (ATP) and IC50; read-out: CDK inhibition Ki CDK9T1. The gist of the method:
as §1

The next experiment relates to MV4-11. Description: Cell viability assay (resazurin, leukemia cell line) MV4-11. It counts as cell-based, human. Particulars: read-out: Anti-proliferative activity GI50 MV4-11. The text has this:
(§2) Compounds from Example 1 were subjected to a standard MTT (3-(4,5-dimethylthiazol-2-yl)-2,5-diphenyltetrazolium bromide) and resazurin assays on solid tumour cell lines and leukemia cell lines, respectively, as previously reported (Wang S et al., J Med Chem 47:1662-1675, 2004 and Diab S. et al. CheMedChem 9:962-972, 2014).
A general note: Alamar Blue is a resazurin reagent that responds to reducing activity.

A further experiment has as its system MDA-MB-453. Description: Cell viability assay (MTT, solid tumour cell line) MDA-MB-453. As to conditions: read-out: Anti-proliferative activity GI50 MDA-MB-453. It counts as cell-based, human.
Text: as §2

Where two headings read alike, the source gives them in different places.

T1 sequence (P11802 whole entry): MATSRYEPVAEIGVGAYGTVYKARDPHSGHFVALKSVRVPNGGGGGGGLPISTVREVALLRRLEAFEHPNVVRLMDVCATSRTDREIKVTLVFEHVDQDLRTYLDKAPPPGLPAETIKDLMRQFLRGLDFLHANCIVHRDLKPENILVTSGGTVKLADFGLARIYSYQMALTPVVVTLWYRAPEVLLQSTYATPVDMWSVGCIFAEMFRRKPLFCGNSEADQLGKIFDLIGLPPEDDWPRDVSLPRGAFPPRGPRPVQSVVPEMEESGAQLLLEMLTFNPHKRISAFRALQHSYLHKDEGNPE
T1 sequence (P24385 whole entry partner): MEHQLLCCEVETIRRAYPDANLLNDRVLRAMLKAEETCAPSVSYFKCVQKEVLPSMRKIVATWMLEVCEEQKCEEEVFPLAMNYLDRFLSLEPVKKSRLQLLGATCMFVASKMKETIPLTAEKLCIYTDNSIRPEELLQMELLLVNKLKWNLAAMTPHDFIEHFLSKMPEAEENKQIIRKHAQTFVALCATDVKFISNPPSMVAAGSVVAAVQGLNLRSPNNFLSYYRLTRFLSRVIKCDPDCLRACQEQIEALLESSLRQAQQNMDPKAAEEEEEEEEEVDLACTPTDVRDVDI
T3 sequence (P50750 whole entry): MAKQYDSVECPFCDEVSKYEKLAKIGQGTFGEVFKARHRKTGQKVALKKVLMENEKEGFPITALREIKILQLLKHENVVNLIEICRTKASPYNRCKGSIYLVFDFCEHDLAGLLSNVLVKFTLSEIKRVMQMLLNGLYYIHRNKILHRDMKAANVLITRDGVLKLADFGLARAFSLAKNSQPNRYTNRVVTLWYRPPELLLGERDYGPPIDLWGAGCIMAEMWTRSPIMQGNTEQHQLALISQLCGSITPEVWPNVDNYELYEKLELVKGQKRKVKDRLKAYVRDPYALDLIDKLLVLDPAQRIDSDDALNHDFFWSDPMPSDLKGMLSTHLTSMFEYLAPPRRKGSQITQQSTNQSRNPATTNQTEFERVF
T3 sequence (O60563 whole entry partner): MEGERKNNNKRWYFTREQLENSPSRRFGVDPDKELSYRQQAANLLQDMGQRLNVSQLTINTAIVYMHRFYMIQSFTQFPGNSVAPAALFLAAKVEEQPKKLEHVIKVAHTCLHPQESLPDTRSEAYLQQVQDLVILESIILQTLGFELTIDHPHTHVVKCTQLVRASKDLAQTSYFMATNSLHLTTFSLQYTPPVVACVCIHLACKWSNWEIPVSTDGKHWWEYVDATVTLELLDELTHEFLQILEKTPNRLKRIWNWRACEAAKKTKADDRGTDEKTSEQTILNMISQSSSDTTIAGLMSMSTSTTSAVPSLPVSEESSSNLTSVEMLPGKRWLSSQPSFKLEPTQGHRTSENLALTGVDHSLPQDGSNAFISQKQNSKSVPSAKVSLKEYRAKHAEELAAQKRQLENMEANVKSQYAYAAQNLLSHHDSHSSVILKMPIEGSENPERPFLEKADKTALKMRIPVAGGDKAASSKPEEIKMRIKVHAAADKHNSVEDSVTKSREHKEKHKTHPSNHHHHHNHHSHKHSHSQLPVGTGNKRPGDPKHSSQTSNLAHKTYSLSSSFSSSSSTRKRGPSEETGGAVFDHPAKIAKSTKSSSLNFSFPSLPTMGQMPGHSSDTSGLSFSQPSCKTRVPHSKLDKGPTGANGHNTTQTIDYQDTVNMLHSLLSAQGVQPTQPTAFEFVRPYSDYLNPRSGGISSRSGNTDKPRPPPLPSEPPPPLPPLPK

On to `CSc1nc(C)c(-c2ccnc(Nc3ccc(N4CCNCC4)cn3)n2)s1` [Compound 20, 4-(4-Methyl-2-(methylthio)thiazol-5-yl)-N-(5-(piperazin-1-yl)pyridin-2-yl)pyrimidin-2-amine], for which the Ki at CDK1B is more than 5000 nM; at CDK 2A, 720 nM; at CDK4D1, 5 nM; on CDK6D3, 20 nM; on CDK7H, more than 5000 nM; on CDK9T1, 4530 nM. In addition, the GI50 stood at 671 ± 91 nM in the experiment on MV4-11 (Homo sapiens, MV4-11, 72 h) and 3140 ± 173 nM in the experiment with MDA-MB-453 (Homo sapiens, MDA-MB-453, 72 h).

`Cc1nc(N(C)C)sc1-c1nc(Nc2ccc(N3CCNCC3)cn2)ncc1F` [Compound 44, 5-(5-fluoro-2-((5-(piperazin-1-yl)pyridin-2-yl)amino)pyrimidin-4-yl)-N,N,4-trimethylthiazol-2-amine]: the Ki at CDK1B was more than 5000 nM; on CDK 2A it was 335 nM; on CDK4D1, 4 nM; at CDK6D3, 40 nM; at CDK7H, more than 5000 nM; on CDK9T1, more than 5000 nM. The GI50 in the experiment on MV4-11 (Homo sapiens, MV4-11, 72 h) was determined as 48 ± 4 nM; in the experiment on MDA-MB-453 (Homo sapiens, MDA-MB-453, 72 h), 237 ± 44 nM.

As to `Cc1nc(C)c(-c2nc(Nc3ccc(N4CCNCC4)cn3)ncc2C#N)s1` [Compound 4, 4-(2,4-dimethylthiazol-5-yl)-2-((5-(piperazin-1-yl)pyridin-2-yl)amino)pyrimidine-5-carbonitrile], the Ki is more than 5000 nM on CDK1B; more than 5000 nM at CDK 2A; 31 nM on CDK4D1; 117 nM at CDK6D3; more than 5000 nM at CDK7H; 2040 nM on CDK9T1. Also, the GI50 in the experiment with MV4-11 (Homo sapiens, MV4-11, 72 h) stood at 296 ± 287 nM; in the experiment with MDA-MB-453 (Homo sapiens, MDA-MB-453, 72 h), 1970 ± 404 nM.

On to `CNc1nc(C)c(-c2nc(Nc3ccc(N4CCN(S(C)(=O)=O)CC4)cn3)ncc2F)s1` [Compound 52, 5-(5-fluoro-2-((5-(4-(methylsulfonyl)piperazin-1-yl)pyridin-2-yl)amino)pyrimidin-4-yl)-N,4-dimethylthiazol-2-amine], for which the Ki is 580 nM at CDK1B; 76 nM at CDK 2A; 37 nM at CDK4D1; 297 nM on CDK6D3; more than 5000 nM on CDK7H; more than 5000 nM at CDK9T1. Besides, the GI50 is 425 ± 73 nM in the experiment on MV4-11 (Homo sapiens, MV4-11, 72 h) and 660 ± 92 nM with MDA-MB-453 (Homo sapiens, MDA-MB-453, 72 h).

As for `CSc1nc(C)c(-c2ccnc(Nc3ccc(N4CCN(C)CC4)cn3)n2)s1` [Compound 21, 4-(4-methyl-2-(methylthio)thiazol-5-yl)-N-(5-(4-methylpiperazin-1-yl)pyridin-2-yl)pyrimidin-2-amine], the Ki on CDK1B was more than 5000 nM; on CDK 2A, 2700 nM; on CDK4D1, 7 nM; on CDK6D3, 42 nM; on CDK7H, more than 5000 nM; at CDK9T1 it was more than 5000 nM. The GI50 with MV4-11 (Homo sapiens, MV4-11, 72 h) came out at 456 ± 66 nM; in the experiment on MDA-MB-453 (Homo sapiens, MDA-MB-453, 72 h) it was 7160 ± 886 nM.

With `Cc1nc(NC2CCCC2)sc1-c1nc(Nc2ccc(N3CCN(S(C)(=O)=O)CC3)cn2)ncc1F` [Compound 82, N-cyclopentyl-5-(5-fluoro-2-((5-(4-(methylsulfonyl)piperazin-1-yl)pyridin-2-yl)amino)pyrimidin-4-yl)-4-methylthiazol-2-amine], the Ki at CDK1B was more than 5000 nM; at CDK 2A, 348 nM; at CDK4D1 it was 39 nM; on CDK6D3, 101 nM; on CDK7H, more than 5000 nM; on CDK9T1, more than 5000 nM. The GI50 is 2630 ± 582 nM in the experiment with MV4-11 (Homo sapiens, MV4-11, 72 h) and 2810 ± 89 nM in the experiment with MDA-MB-453 (Homo sapiens, MDA-MB-453, 72 h).

As to `CCc1nc(C)c(-c2ccnc(Nc3ccc(N4CCN(C)CC4)cn3)n2)s1` [Compound 8, 4-(2-ethyl-4-methylthiazol-5-yl)-N-(5-(4-methylpiperazin-1-yl)pyridin-2-yl)pyrimidin-2-amine], the Ki on CDK1B is more than 5000 nM; at CDK 2A, 1820 nM; at CDK4D1, 24 nM; on CDK6D3 it was 980 nM; on CDK7H, more than 5000 nM; on CDK9T1 it was more than 5000 nM. The GI50 was 750 ± 246 nM in the experiment with MV4-11 (Homo sapiens, MV4-11, 72 h) and 3010 ± 705 nM with MDA-MB-453 (Homo sapiens, MDA-MB-453, 72 h).

Turning to `Cc1nc(C(C)C)sc1-c1ccnc(Nc2ccc(N3CCOCC3)cn2)n1` [Compound 17, 4-(2-isopropyl-4-methylthiazol-5-yl)-N-(5-morpholinopyridin-2-yl)pyrimidin-2-amine], the Ki on CDK1B was 1440 nM; on CDK 2A it was 60 nM; at CDK4D1 it was 1 nM; on CDK6D3 it was 4 nM; on CDK7H, 4690 nM; at CDK9T1, 1730 nM. Further, the GI50 in the experiment with MV4-11 (Homo sapiens, MV4-11, 72 h) turned out to be 649 ± 24 nM; in the experiment on MDA-MB-453 (Homo sapiens, MDA-MB-453, 72 h) it was 1050 ± 203 nM.

On to `Cc1nc(N(C)c2ccccc2)sc1-c1ccnc(Nc2ccc(N3CCN(C)CC3)cn2)n1` [Compound 91, N,4-dimethyl-5-(2-((5-(4-methylpiperazin-1-yl)pyridin-2-yl)amino)pyrimidin-4-yl)-N-phenylthiazol-2-amine], for which the Ki on CDK1B is more than 5000 nM; at CDK 2A, 1040 nM; on CDK4D1, 26 nM; at CDK6D3 it was 100 nM; at CDK7H, more than 5000 nM; at CDK9T1, 2000 nM. In addition, the GI50 in the experiment on MV4-11 (Homo sapiens, MV4-11, 72 h) is 421 ± 44 nM; in the experiment on MDA-MB-453 (Homo sapiens, MDA-MB-453, 72 h), 150 ± 29 nM.

`COc1nc(C)c(-c2ccnc(Nc3ccc(N4CCN(C)CC4)cn3)n2)s1` [Compound 19, 4-(2-methoxy-4-methylthiazol-5-yl)-N-(5-(4-methylpiperazin-1-yl)pyridin-2-yl)pyrimidin-2-amine]: the Ki on CDK1B was more than 5000 nM; on CDK 2A, 3650 nM; at CDK4D1, 310 nM; on CDK6D3, 935 nM; on CDK7H it was more than 5000 nM; on CDK9T1, 4760 nM. Besides, the GI50 in the experiment on MV4-11 (Homo sapiens, MV4-11, 72 h) was 3520 ± 1040 nM; in the experiment on MDA-MB-453 (Homo sapiens, MDA-MB-453, 72 h) it was more than 10000 nM.

As for “5-(2-((5-(4-Ethylpiperazin-1-yl)pyridin-2-yl)amino)-5-fluoropyrimidin-4-yl)-N,4-dimethylthiazol-2-amine [Compound 32]”, the Ki on CDK1B was more than 5000 nM; on CDK 2A, 665 nM; at CDK4D1, 5 nM; on CDK6D3, 20 nM; at CDK7H, more than 5000 nM; on CDK9T1 it was 2920 nM. Also, the figures for the GI50 in the experiment on MV4-11 (72 h) and in the experiment with MDA-MB-453 (72 h) were 65 ± 2 nM and 528 ± 46 nM, respectively.

Regarding `CCN1CCN(Cc2ccc(Nc3nccc(-c4sc(C(C)C)nc4C)n3)nc2)CC1` [Compound 18, N-(5-((4-ethylpiperazin-1-yl)methyl)pyridin-2-yl)-4-(2-isopropyl-4-methylthiazol-5-yl)pyrimidin-2-amine], the Ki at CDK1B is more than 5000 nM; on CDK 2A, 775 nM; on CDK4D1, 28 nM; on CDK6D3, 394 nM; at CDK7H it was more than 5000 nM; at CDK9T1, more than 10000 nM. Besides, the 50% growth inhibitory concentration (GI50) in the experiment with MV4-11 (Homo sapiens, MV4-11, 72 h) was 418 ± 23 nM; in the experiment on MDA-MB-453 (Homo sapiens, MDA-MB-453, 72 h), 166 ± 117 nM.

`Cc1nc(SC(C)C)sc1-c1ccnc(Nc2ccc(N3CCNCC3)cn2)n1` [Compound 23, 4-(2-(isopropylthio)-4-methylthiazol-5-yl)-N-(5-(piperazin-1-yl)pyridin-2-yl)pyrimidin-2-amine]: the Ki at CDK1B is more than 5000 nM; at CDK 2A, 180 nM; on CDK4D1, 30 nM; at CDK6D3 it was 200 nM; on CDK7H, more than 5000 nM; at CDK9T1 it was more than 5000 nM. For the same molecule, the GI50 in the experiment with MV4-11 (Homo sapiens, MV4-11, 72 h) stood at 73 ± 25 nM; in the experiment on MDA-MB-453 (Homo sapiens, MDA-MB-453, 72 h), 461 ± 59 nM.

The term GI50 denotes the concentration giving 50% growth inhibition.
